For three molecules, remaining binding results are on record in paper PMC6437697 (Journal of Medicinal Chemistry, 2019).

Molecules are shown by their SMILES.

Common to all, as to assay: KINOMEscan
Assay type in all cases: binding
Holding throughout (conditions): read-out: % control activity remaining

In experiment [1] the target is T1, SRPK3 (Homo sapiens, UniProt Q9UPE1).
T1 construct: purchased Eurofins DiscoverX KINOMEscan

For experiment [2], the target named is T2, MEK1 (Homo sapiens, UniProt Q02750).
T2 construct: purchased Eurofins DiscoverX KINOMEscan

Experiment [3] addresses T3, NDR2 (Homo sapiens, UniProt Q9Y2H1).
T3 construct: purchased Eurofins DiscoverX KINOMEscan

The target of experiment [4] is T4, ABL1-phosphorylated (Homo sapiens, UniProt P00519).
T4 construct: purchased Eurofins DiscoverX KINOMEscan

The target of experiment [5] is T5, ADCK3 (Homo sapiens, UniProt Q8NI60).
T5 construct: purchased Eurofins DiscoverX KINOMEscan

Experiment [6] addresses T6, TGFBR2 (Homo sapiens, UniProt P37173).
T6 construct: purchased Eurofins DiscoverX KINOMEscan

Experiment [7] deals with T7, KIT(D816V) (Homo sapiens, UniProt P10721, D816V).
T7 construct: purchased Eurofins DiscoverX KINOMEscan

In experiment [8] the target is T8, SIK2 (Homo sapiens, UniProt Q9H0K1).
T8 construct: purchased Eurofins DiscoverX KINOMEscan

Experiment [9] concerns the target T9, EGFR(L858R,T790M) (Homo sapiens, UniProt P00533, L858R/T790M).
T9 construct: purchased Eurofins DiscoverX KINOMEscan

For experiment [10], the target named is T10, HIPK3 (Homo sapiens, UniProt Q9H422).
T10 construct: purchased Eurofins DiscoverX KINOMEscan

Experiment [11] has as its target T11, MKNK1 (Homo sapiens, UniProt Q9BUB5).
T11 construct: purchased Eurofins DiscoverX KINOMEscan

Experiment [12] addresses T12, PRKCD (Homo sapiens, UniProt Q05655).
T12 construct: purchased Eurofins DiscoverX KINOMEscan

Experiment [13] has as its target T13, DAPK1 (Homo sapiens, UniProt P53355).
T13 construct: purchased Eurofins DiscoverX KINOMEscan

Experiment [14] addresses T14, MAP3K1 (Homo sapiens, UniProt Q13233).
T14 construct: purchased Eurofins DiscoverX KINOMEscan

In experiment [15] the target is T15, BRSK1 (Homo sapiens, UniProt Q8TDC3).
T15 construct: purchased Eurofins DiscoverX KINOMEscan
T15 sequence (Q8TDC3 1-778): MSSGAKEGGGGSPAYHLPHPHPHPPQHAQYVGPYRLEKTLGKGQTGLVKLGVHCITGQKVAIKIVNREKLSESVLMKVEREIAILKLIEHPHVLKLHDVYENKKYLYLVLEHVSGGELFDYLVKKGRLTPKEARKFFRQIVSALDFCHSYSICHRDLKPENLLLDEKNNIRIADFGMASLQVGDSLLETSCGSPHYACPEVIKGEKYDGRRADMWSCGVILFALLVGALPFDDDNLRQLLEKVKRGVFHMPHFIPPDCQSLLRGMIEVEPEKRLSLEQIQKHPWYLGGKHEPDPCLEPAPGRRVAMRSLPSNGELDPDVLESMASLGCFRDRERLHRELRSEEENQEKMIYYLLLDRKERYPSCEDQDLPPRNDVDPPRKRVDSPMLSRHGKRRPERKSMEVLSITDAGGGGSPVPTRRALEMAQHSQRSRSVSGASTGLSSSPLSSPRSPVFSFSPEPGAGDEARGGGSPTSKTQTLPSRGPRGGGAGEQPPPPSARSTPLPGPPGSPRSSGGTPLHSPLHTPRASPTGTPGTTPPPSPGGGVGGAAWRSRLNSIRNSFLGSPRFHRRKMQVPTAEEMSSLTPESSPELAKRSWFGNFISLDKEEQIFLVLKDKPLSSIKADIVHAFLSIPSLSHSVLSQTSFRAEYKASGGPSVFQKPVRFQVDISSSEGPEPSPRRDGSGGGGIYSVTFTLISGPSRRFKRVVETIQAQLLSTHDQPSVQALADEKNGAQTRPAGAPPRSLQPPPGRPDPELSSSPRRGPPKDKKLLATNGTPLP

The target of experiment [16] is T16, p38-beta (Homo sapiens, UniProt Q15759).
T16 construct: purchased Eurofins DiscoverX KINOMEscan

The target in experiment [17] is T17, RIPK4 (Homo sapiens, UniProt P57078).
T17 construct: purchased Eurofins DiscoverX KINOMEscan
T17 sequence (P57078 1-832): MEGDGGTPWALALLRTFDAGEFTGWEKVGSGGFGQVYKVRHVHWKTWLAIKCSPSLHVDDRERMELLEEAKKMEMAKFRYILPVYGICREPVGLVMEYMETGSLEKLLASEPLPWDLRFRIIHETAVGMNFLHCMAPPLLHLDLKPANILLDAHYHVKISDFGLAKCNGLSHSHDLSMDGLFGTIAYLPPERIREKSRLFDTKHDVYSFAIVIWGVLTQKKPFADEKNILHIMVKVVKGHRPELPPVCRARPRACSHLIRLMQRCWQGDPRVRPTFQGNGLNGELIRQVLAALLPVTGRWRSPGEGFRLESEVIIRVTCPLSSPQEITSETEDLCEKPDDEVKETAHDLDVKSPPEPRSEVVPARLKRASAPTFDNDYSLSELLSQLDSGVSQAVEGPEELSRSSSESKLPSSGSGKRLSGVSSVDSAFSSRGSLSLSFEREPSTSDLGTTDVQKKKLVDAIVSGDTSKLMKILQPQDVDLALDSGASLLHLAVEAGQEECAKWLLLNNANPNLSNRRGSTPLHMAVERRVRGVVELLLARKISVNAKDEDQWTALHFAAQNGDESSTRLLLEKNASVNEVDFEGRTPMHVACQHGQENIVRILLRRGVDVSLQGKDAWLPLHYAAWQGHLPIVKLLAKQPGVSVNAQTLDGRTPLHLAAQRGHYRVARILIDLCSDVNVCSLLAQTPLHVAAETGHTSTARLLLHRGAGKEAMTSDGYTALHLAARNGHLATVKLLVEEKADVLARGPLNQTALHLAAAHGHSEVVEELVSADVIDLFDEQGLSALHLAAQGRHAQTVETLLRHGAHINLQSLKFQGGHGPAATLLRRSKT

T9 sequence (P00533 25-1210 T790M/L858R limits assumed): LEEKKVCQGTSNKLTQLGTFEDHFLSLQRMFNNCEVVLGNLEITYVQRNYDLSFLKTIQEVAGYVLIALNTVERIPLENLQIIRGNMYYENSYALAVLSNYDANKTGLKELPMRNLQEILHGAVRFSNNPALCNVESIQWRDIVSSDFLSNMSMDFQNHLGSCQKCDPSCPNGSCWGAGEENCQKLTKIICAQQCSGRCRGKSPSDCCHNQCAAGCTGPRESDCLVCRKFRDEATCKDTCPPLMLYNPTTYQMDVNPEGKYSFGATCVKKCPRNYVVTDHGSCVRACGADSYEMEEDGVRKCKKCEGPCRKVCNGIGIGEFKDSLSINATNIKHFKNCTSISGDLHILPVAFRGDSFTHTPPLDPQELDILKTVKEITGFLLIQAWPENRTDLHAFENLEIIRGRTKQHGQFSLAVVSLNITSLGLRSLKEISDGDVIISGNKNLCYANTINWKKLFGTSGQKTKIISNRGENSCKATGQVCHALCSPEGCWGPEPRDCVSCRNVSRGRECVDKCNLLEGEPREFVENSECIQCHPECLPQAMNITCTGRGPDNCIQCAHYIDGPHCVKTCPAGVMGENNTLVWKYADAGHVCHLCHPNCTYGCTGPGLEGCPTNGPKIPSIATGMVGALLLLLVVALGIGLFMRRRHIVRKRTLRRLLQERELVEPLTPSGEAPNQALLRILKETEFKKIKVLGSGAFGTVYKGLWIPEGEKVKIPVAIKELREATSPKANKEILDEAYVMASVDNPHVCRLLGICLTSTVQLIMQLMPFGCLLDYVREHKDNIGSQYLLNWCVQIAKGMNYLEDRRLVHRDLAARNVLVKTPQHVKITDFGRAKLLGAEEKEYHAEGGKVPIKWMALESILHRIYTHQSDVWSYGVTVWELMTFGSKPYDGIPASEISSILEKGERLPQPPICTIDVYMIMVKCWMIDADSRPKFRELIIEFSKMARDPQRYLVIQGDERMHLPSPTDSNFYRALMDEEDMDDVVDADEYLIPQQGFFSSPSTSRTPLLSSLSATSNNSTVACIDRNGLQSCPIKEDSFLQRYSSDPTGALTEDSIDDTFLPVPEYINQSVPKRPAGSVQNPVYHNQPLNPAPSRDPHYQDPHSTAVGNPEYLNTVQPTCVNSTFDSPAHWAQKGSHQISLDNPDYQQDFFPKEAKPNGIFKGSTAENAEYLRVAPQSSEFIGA
T5 sequence (Q8NI60 163-647): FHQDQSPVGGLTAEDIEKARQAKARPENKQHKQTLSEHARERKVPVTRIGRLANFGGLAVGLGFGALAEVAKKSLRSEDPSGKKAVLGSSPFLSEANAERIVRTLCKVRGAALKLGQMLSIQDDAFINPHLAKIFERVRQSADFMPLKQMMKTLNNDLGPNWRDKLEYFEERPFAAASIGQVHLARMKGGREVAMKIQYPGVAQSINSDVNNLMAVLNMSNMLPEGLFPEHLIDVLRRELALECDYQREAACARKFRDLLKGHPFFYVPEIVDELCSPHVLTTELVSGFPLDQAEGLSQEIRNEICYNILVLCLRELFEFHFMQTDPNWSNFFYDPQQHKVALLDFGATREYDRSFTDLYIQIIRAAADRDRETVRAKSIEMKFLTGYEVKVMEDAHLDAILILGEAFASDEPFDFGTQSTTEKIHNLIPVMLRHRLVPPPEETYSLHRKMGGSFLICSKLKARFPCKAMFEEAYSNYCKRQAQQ
T16 sequence (Q15759 whole entry): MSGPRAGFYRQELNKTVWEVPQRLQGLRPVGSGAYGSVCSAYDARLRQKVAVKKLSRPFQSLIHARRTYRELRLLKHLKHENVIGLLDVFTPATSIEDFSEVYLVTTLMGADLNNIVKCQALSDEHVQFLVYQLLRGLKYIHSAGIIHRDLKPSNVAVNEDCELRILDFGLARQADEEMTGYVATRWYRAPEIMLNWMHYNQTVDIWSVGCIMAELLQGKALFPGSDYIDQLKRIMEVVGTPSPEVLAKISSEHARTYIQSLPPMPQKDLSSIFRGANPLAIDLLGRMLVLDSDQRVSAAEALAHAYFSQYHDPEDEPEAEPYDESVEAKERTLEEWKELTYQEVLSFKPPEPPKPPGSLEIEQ
T2 sequence (Q02750 whole entry): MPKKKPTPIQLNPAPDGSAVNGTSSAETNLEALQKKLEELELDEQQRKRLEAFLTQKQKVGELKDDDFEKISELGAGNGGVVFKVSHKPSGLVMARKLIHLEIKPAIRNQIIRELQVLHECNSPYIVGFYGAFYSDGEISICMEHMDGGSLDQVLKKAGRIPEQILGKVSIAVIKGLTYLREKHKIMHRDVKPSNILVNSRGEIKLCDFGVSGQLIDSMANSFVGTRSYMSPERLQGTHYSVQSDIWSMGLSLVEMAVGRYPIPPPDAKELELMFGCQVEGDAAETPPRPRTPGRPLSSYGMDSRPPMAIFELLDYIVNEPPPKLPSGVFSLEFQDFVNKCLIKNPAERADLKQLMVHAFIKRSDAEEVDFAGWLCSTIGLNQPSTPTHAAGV
T3 sequence (Q9Y2H1 whole entry): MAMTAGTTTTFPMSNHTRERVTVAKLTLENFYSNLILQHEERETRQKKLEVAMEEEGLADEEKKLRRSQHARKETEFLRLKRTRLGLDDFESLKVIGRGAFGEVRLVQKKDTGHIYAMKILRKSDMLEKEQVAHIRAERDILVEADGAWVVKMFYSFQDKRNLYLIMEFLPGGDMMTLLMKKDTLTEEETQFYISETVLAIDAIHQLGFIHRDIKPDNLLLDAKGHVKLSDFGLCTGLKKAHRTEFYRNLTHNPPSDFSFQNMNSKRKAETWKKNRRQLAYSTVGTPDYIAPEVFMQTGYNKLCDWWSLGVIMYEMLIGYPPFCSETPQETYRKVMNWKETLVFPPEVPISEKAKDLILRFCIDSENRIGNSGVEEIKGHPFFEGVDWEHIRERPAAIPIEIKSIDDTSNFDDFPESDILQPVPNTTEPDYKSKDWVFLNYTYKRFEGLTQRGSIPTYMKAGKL
T11 sequence (Q9BUB5 whole entry): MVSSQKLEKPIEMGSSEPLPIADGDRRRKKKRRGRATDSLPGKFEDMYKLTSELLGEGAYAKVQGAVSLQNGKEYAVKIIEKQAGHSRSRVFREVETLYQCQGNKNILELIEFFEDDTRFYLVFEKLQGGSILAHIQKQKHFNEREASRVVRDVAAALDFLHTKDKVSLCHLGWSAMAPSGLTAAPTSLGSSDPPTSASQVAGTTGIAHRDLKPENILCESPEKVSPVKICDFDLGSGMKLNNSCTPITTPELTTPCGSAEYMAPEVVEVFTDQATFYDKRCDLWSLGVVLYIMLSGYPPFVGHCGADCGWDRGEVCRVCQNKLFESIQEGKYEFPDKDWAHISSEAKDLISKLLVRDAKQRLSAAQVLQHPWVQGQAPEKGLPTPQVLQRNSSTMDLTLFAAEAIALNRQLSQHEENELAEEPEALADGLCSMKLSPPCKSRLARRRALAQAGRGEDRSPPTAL
T8 sequence (Q9H0K1 whole entry): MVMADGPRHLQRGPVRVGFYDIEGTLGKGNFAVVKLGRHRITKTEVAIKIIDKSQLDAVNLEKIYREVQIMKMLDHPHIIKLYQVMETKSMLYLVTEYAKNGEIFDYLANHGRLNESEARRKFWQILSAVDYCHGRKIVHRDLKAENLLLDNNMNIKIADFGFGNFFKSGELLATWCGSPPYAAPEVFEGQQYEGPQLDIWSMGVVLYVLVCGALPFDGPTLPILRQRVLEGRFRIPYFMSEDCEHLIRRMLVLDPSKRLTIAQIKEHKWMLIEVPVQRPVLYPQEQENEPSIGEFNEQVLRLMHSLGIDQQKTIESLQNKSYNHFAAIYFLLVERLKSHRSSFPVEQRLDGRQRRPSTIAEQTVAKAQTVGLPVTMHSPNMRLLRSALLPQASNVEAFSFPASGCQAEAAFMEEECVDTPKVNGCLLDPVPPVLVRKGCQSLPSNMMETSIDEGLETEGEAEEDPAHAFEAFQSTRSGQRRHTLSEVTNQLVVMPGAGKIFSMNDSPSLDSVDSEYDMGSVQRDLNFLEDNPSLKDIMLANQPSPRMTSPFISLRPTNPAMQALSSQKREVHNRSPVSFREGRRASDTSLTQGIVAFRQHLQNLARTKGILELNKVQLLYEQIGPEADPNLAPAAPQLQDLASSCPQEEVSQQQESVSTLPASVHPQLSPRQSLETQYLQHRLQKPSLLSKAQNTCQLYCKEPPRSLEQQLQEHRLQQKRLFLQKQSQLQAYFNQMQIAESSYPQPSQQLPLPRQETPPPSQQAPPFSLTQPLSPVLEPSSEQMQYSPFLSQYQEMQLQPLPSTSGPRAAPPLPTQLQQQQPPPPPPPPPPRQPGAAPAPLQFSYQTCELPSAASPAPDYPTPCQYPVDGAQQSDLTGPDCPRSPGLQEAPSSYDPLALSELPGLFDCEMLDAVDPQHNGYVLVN
T1 sequence (Q9UPE1 whole entry): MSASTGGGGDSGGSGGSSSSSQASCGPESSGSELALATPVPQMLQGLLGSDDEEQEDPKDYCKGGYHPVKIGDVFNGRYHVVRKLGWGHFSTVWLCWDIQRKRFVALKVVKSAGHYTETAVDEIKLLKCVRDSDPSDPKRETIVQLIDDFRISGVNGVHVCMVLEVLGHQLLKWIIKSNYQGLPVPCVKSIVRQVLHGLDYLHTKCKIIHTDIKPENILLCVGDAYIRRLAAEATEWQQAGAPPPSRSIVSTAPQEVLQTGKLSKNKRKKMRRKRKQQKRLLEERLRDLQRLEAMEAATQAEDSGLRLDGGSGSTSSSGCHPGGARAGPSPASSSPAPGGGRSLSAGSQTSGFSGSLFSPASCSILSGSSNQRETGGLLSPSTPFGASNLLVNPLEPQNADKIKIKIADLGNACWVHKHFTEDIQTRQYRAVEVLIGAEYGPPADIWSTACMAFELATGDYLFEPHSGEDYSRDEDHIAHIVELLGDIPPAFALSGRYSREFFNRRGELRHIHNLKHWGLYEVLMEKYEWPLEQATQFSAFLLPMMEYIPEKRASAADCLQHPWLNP

Regarding `Clc1cc(NCC2CC2)c2ncc(-c3ccc4[nH]ncc4c3)n2n1` [compound 2, 6-Chloro-N-(cyclopropylmethyl)-3-(1H-indazol-5-yl)imidazo[1,2-b]pyridazin-8-amine], the remaining binding at 1 µM came out at 49% in [1]; 95% in experiment [2]; 94% in experiment [3]; 94% in experiment [4]; 79% in experiment [5]; 100% in experiment [6]. Moreover, the remaining binding at 1 µM in experiment [7] is 78%; in experiment [8] it was 73%; in experiment [9] it was 82%; in experiment [10] it was 63%; in [11] it was 82%; in experiment [12] it was 93%. Also, the remaining binding at 1 µM in experiment [13] came out at 98%; in [14], 99%; in experiment [15], 96%; in experiment [16], 94%; in experiment [17], 96%.

As to `O=C(CN1CCOCC1)N[C@H]1CC[C@H](Nc2cc(Cl)nn3c(-c4ccc5[nH]ncc5c4)cnc23)CC1` [compound 26], the remaining binding at 1 µM in experiment [1] was 66%; in [2], 93%; in experiment [3], 94%; in experiment [4] it was 54%; in experiment [5], 88%; in experiment [6] it was 100%. Besides, the remaining binding at 1 µM in [7] was 29%; in experiment [8], 97%; in [9], 90%; in [10], 2.4%; in experiment [11] it was 88%; in experiment [12], 90%. Also, the remaining binding at 1 µM in experiment [13] amounted to 66%; in experiment [14], 92%; in experiment [15], 86%; in [16] it was 94%; in experiment [17], 95%.

In the case of `CN1CCC(CNc2cc(Cl)nn3c(-c4cc5nc(Nc6ccccc6)[nH]c5cc4F)cnc23)CC1` [compound 31, 6-Chloro-3-(6-fluoro-2-(phenylamino)-1H-benzo[d]imidazol-5-yl)-N-((1-methylpiperidin-4-yl)methyl)imidazo[1,2-b]pyridazin-8-amine], the remaining binding at 1 µM in experiment [1] turned out to be 100%; in experiment [2], 80%; in experiment [3] it was 100%; in experiment [4], 81%; in experiment [5], 85%; in experiment [6], 100%. The remaining binding at 1 µM is 81% in experiment [7]; 100% in [8]; 100% in experiment [9]; 89% in experiment [10]; 83% in experiment [11]; 62% in experiment [12]. Besides, the remaining binding at 1 µM in [13] was found to be 99%; in [14] it was 89%; in experiment [15] it was 100%; in experiment [16] it was 99%; in experiment [17] it was 98%.
